Earlier results, collected in patent US20240016760A1, “Multivitamin” (priority 2022, published 2024).

Assays:
[1] = tested on: CFTR protein; settings: patients with CF
[2] = biological target: CFTR Chloride channels (Homo sapiens, UniProt P13569); settings: increase from zero, at the appropriate concentrations
Sequence of CFTR Chloride channels (P13569 whole entry): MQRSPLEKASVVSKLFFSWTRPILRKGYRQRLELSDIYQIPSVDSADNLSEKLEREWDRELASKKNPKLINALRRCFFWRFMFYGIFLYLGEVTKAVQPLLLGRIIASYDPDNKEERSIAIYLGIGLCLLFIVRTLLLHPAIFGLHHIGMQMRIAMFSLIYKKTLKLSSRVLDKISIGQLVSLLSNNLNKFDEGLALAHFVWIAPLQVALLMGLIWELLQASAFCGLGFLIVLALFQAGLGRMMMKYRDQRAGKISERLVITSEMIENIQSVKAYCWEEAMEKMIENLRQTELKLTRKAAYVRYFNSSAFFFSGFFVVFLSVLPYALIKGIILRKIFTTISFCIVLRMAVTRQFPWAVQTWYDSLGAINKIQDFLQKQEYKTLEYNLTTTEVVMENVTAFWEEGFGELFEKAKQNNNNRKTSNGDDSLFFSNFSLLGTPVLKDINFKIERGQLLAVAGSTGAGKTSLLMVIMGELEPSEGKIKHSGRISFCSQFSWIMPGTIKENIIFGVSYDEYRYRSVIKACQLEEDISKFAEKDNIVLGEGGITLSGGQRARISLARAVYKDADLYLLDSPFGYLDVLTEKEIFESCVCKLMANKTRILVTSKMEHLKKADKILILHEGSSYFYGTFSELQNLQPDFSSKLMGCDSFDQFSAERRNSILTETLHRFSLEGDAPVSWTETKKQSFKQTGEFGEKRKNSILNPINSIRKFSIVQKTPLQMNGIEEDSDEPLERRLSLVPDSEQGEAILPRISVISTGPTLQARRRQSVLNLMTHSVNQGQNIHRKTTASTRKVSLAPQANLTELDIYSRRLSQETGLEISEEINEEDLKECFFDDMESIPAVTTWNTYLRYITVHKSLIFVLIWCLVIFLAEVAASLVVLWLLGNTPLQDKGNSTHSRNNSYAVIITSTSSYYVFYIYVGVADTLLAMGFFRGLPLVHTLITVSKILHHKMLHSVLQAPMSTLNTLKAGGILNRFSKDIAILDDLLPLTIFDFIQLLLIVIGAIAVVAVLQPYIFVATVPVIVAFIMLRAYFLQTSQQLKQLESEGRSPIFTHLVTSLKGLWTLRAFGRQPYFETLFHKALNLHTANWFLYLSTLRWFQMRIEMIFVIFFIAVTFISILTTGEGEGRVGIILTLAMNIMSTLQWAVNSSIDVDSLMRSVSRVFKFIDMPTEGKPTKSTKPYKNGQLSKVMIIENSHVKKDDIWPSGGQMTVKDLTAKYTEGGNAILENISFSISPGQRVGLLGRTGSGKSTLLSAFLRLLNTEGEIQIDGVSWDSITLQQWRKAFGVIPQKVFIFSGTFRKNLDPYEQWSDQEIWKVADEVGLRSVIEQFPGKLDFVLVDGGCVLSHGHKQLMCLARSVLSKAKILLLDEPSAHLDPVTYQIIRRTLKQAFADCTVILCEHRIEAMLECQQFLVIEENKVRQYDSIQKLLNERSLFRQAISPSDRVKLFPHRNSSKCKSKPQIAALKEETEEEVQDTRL

SMILES	average increase in lung function (as measured by FEV1) [1] [%]	average open probability of CFTR Chloride channels [2]
CC(C)(C)c1cc(C(C)(C)C)c(NC(=O)c2c[nH]c3ccccc3c2=O)cc1O [Ivacaftor, ivacaftor]	~2	–
O=C1O[C@H]([C@@H](O)CO)C(O)=C1O [vitamin C]	–	0.21 (+0.08)
